Reference: ChEMBL document CHEMBL6182942, “Discovery of a Selective, Novel TGF-βR1 Inhibitor GFH018 for the Treatment of Solid Tumors” (J Med Chem, 2025)
In brackets after ≈: the same amount, converted by molar mass. Activity calls are given as the source filed them. The calls are words filed in the database; no cut-off is given here.

Assays:
CD14-positive cell [1] = test: Immunostimulatory activity in human PBMC derived M-CSF stimulated CD14-positive cells assessed as effect on M2 macrophage polarization at 0.01 to 10 uM supplemented with fresh medium containing compound on day 1, 3 and 5 followed by M-CSF/IL-4/IL-13 stimulation; type: functional, cell-based; conditions: dose 0.01-10 µM, time 5.0 day
[2] = Metabolic stability in mouse liver microsomes assessed as parent compound remaining at 1 uM preincubated for 5 mins followed by NADPH addition by LC-MS/MS analysis; type: ADME, Microsome; conditions: read-out: Stability
H22 = test: Antitumor activity against mouse H22 cells implanted in BALB/c mouse assessed as tumor growth inhibition at 15 mg/kg, po administered twice daily for 11 days and measured 3 times per week during compound dosing relative to control; type: functional; conditions: H22, 264 h, time 11 day, read-out: TGI
Cytochrome P450 1A2 = Cytochrome P450 1A2 (Homo sapiens, UniProt P05177); test: Inhibition of CYP1A2 in human liver microsomes using phenacetin as substrate preincubated for 10 mins followed by NADPH regeneration system addition and measured after 10 mins by LC-MS/MS analysis; type: ADME, Microsome
Sequence of Cytochrome P450 1A2 (P05177 whole entry): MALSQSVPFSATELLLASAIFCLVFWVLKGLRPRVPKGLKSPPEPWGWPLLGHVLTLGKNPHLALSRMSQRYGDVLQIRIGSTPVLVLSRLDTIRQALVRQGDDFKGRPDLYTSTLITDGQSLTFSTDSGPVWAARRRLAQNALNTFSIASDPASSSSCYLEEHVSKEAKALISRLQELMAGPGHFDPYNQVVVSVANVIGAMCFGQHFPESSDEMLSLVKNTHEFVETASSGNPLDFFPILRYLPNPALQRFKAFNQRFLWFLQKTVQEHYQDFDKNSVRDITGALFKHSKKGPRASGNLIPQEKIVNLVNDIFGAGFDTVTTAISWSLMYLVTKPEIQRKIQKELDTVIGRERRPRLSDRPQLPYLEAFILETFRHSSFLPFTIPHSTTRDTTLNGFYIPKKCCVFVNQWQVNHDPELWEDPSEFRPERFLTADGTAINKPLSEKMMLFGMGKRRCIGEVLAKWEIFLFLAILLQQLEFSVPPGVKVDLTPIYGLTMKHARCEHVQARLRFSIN

[3] = Tmax in mouse H22 cell implanted BALB/c mouse at 15 to 50 mg/kg, po administered twice daily for 11 days; type: ADME, organism-based; conditions: in vivo, dose 15-50 mg/kg, time 11 day
[4] = Oral bioavailability in CD-1 mouse at 75 mg/kg via gavage by LC-MS/MS analysis; type: ADME, organism-based; conditions: in vivo
[5] = Half life in CD-1 mouse at 75 mg/kg, po via gavage by LC-MS/MS analysis; type: ADME, organism-based; conditions: in vivo
4T1-Luc [6] = test: Antimetastatic activity against mouse 4T1-Luc cells implanted in BALB/c mouse assessed as reduction in metastatic rate in liver at 100 mg/kg, po administered daily for 32 days and measured on day 30 to 35 by IVIS fluorescence analysis; type: functional, organism-based; conditions: time 35.0 day
[7] = Intrinsic clearance in dog hepatocytes at 1 uM measured after 90 mins by LC-MS/MS analysis; type: ADME, cell-based, Canis lupus familiaris, Hepatocyte; conditions: read-out: CLH
[8] = Intrinsic clearance in rat hepatocytes at 1 uM measured after 90 mins by LC-MS/MS analysis; type: ADME, cell-based, Hepatocyte; conditions: read-out: CLH
[9] = Oral bioavailability in CD-1 mouse at 5 mg/kg via gavage by LC-MS/MS analysis; type: ADME, organism-based; conditions: in vivo
TGF-beta receptor type-1 = target: T1, TGF-beta receptor type-1 (Homo sapiens, UniProt P36897); test: Inhibition of human TGFbetaR1 expressed in HEK293 cells co-expressing SBE assessed as reduction in TGFbeta/activin A-induced SMAD phosphorylation preincubated for 4 to 5 hrs followed by TGFbeta/activin A stimulation and measured after 18 hrs by luciferase reporter gene assay; type: cell-based
T1 sequence (P36897 whole entry): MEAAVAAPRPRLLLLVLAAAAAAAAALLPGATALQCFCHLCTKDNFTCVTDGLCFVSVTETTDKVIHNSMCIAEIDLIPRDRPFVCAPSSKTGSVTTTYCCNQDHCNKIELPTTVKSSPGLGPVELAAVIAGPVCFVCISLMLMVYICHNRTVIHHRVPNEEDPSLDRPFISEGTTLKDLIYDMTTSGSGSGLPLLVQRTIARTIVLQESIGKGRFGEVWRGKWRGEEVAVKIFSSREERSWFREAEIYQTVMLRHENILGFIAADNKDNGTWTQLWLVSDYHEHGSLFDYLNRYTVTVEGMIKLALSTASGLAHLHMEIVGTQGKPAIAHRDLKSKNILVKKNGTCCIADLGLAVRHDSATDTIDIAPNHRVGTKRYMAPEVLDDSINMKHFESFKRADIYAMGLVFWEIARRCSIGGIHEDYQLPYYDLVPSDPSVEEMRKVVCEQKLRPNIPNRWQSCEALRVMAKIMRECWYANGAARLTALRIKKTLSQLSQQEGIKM

[10] = Protein binding in Sprague-Dawley rat plasma at 0.2 to 10 uM measured after 4 hrs by equilibrium dialysis based LC-MS/MS analysis; type: ADME, cell-free; conditions: dose 0.2-10 µM, read-out: PPB (converted)
[11] = Drug metabolism in monkey hepatocytes; type: ADME, cell-based, Macaca mulatta, Hepatocyte; conditions: rhesus monkey
[12] = Kinetic solubility of the compound in pH 7.4 aqueous buffer; type: physicochemical; conditions: read-out: Kinetic_solubility
Cytochrome P450 2C8 = Cytochrome P450 2C8 (Homo sapiens, UniProt P10632); test: Inhibition of CYP2C8 in human liver microsomes using amodiaquine as substrate preincubated for 10 mins followed by NADPH regeneration system addition and measured after 10 mins by LC-MS/MS analysis; type: ADME, Microsome
Sequence of Cytochrome P450 2C8 (P10632 whole entry): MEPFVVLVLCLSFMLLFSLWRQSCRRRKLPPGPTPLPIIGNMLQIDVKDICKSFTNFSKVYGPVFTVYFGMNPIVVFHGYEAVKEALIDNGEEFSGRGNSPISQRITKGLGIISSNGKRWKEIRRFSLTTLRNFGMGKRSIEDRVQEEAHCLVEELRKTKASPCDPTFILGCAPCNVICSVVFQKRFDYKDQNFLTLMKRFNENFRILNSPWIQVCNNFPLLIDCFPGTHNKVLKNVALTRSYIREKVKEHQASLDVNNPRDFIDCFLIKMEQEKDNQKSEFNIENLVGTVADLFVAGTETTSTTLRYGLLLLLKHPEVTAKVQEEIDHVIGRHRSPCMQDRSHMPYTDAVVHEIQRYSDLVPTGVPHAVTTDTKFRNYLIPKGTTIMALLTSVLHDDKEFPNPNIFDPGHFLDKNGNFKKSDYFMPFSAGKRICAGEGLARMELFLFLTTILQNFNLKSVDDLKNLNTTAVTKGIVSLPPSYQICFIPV

HUVEC = test: Antiangiogenesis activity in HUVEC assessed as inhibition of vascular structure formation measured after 6 hrs by matrigel based inverted fluorescence microscopy; type: functional, cell-based; conditions: Homo sapiens, dose 0.1-10 µM
[13] = Protein binding in mouse plasma at 0.2 to 10 uM measured after 4 hrs by equilibrium dialysis based LC-MS/MS analysis; type: ADME, cell-free; conditions: dose 0.2-10 µM, read-out: PPB (converted)
[14] = Drug metabolism in rat liver microsomes; type: ADME, Microsome
4T1-Luc [15] = test: Antimetastatic activity against mouse 4T1-Luc cells implanted in BALB/c mouse assessed as reduction in metastatic rate in intestine at 100 mg/kg, po administered daily for 32 days and measured on day 30 to 35 by IVIS fluorescence analysis; type: functional, organism-based; conditions: time 35.0 day
[16] = Toxicity in mouse H22 cell implanted BALB/c mouse assessed as change in body weight at 15 to 50 mg/kg, po administered twice daily for 11 days measured daily during compound dosing; type: organism-based; conditions: in vivo, 264 h, dose 15-50 mg/kg, time 11 day
[17] = Clearance in Beagle dog at 1 mg/kg, iv by LC-MS/MS analysis; type: ADME, organism-based, Canis lupus familiaris; conditions: in vivo
CD14-positive cell [18] = test: (§1) Immunostimulatory activity in human PBMC derived M-CSF stimulated CD14-positive cells assessed as increase in TNFalpha level at 0.1 to 10 uM supplemented with fresh medium containing compound on day 1, 3 and 5 followed by M-CSF/IL-4/IL-13 stimulation for 2 days with subsequent LPS induction and measured after 16 hrs; type: functional, cell-based; conditions: dose 0.1-10 µM, time 7.0 day
CD14-positive cell [19] = test: as §1, with “IL-6” for “TNFalpha”; type: functional, cell-based; conditions: dose 0.1-10 µM, time 7.0 day
[20] = AUC (0 to last) in CD-1 mouse at 5 mg/kg, po via gavage by LC-MS/MS analysis; type: ADME, organism-based; conditions: in vivo
[21] = Drug metabolism in mouse liver microsomes; type: ADME, Microsome
[22] = Volume of distribution at steady state in Sprague-Dawley rat at 1 mg/kg, iv by LC-MS/MS analysis; type: ADME, organism-based; conditions: in vivo, read-out: Vdss
[23] = Half life in Beagle dog at 5 mg/kg, po by LC-MS/MS analysis; type: ADME, organism-based, Canis lupus familiaris; conditions: in vivo
MDR1 = test: Efflux ratio of apparent permeability in dog MDCK-MDR1 cells at 2 uM measured over 150 mins by LC-MS/MS analysis; type: ADME, cell-based, Canis lupus familiaris
[24] = Half life in CD-1 mouse at 5 mg/kg, po via gavage by LC-MS/MS analysis; type: ADME, organism-based; conditions: in vivo
[25] = Clearance in Sprague-Dawley rat at 1 mg/kg, iv by LC-MS/MS analysis; type: ADME, organism-based; conditions: in vivo
4T1-Luc [26] = test: Antimetastatic activity against mouse 4T1-Luc cells implanted in BALB/c mouse assessed as reduction in metastatic rate in forelimb at 100 mg/kg, po administered daily for 32 days and measured on day 30 to 35 by IVIS fluorescence analysis; type: functional, organism-based; conditions: time 35.0 day
[27] = Drug metabolism in human hepatocytes; type: ADME, cell-based, Hepatocyte

With `Cc1cccc(-c2nn3c(c2-c2ccc4ncnn4c2/C=C/C(N)=O)CCC3)n1` the Activity (CD14-positive cell [1]) was “inactive”, the remaining at 1 µM [2] was 20.7% and the inhibition in vivo at 15 mg/kg (H22) was 50.8%. It also gave an IC50 (Cytochrome P450 1A2) greater than 100 µM, a Tmax [3] of 60 min and a bioavailability [4] of 36.8%. For the same compound, the half-life [5] was 51.4 min, the Activity (4T1-Luc [6]) was “Active” and the CLint scaled at […], 1 µM [7] was less than 17.1 mL/min/kg. The CLint scaled at […], 1 µM [8] was 50 mL/min/kg, the bioavailability [9] was 8.74% and the IC50 (TGF-beta receptor type-1) was 0.105 µM. The fraction unbound at 4 h, up to 10 µM [10] was 0.376, the Drug metabolism [11] was “metabolite_detected” and the solubility kinetic [12] was 185 µM (≈ 71.5 µg/mL). For the same compound, the IC50 (Cytochrome P450 2C8) was greater than 100 µM, the inhibition (HUVEC) was “Dose-dependent-effect” and the fraction unbound at 4 h, up to 10 µM [13] was 0.554. For the same compound, the Drug metabolism [14] was “metabolite_detected”, the Activity (4T1-Luc [15]) was “Active” and the Activity [16] was “Non-toxic”. For the same compound, the clearance [17] was 9.29 mL/min/kg, the Activity (CD14-positive cell [18]) was “Active” and the Activity (CD14-positive cell [19]) was “Active”. For the same compound, the AUClast [20] was 285 nM.hr/ml, the Drug metabolism [21] was “metabolite_detected” and the Vd [22] was 1.44 L/kg. The half-life [23] was 170 min, the efflux ratio at 2.5 h, 2 µM (MDR1) was 70.7 and the half-life [24] was 55 min. The clearance [25] was 33.3 mL/min/kg, the Activity (4T1-Luc [26]) was “Active” and the Drug metabolism [27] was “metabolite_detected”.
